Assay results: patent US12473262B2, “Aryl hydrocarbon receptor activators” (Oregon State University, priority 2019, dated 2025)
Read-outs that look alike come from different tables or passages of the source.

How the values were obtained:
CYP-1A2 = CYP-1A2 (Homo sapiens (Human), UniProt P05177); test: CYP panel profile: P450 inhibition, CYP-1A2; assay type: in vitro ADME; details: human liver microsomes; read-out: CYP-1A2 IC50
Protocol: (§1) 5. CYP Panel Profile: P450 Inhibition
(§2) From 10 mM stock solutions of test compounds, a dilution plate was prepared diluting serially starting from 5 mM up to 2 μM in Acetonitrile/DMSO or Methanol/DMSO Human liver Microsomes were added at required concentration as per specific CYP isoform in a deep well assay plate (1A2, 2C9, 2D6, 2B6, 2C8, 2C19, and 3A4). Compounds were spiked in all wells from dilution plate at final concentrations starting from 50 μM up to 0.02 μM, except for positive and negative control. Specific substrate were added to all wells and reactions were pre-incubated for 10 min. To start reactions, NADPH was added to all wells at 1 mM final concentration. Assay plate was mixed by vortexing and incubated at 37° C. for […] for 3A4.20 min for (1A2, 2C9, 2B6, 2C8, 2D6) and […] for 2C19. A quencher with chilled acetonitrile suitable internal standard was added. Samples were centrifuged and supernatants were collected and subjected to LC-MS/MS analysis for determination.

[1] = target: aryl hydrocarbon receptor (AhR) (Mus musculus (Mouse), UniProt P30561); test: AhR ligand screening: AhRE-luciferase reporter in transfected Hepa1 cells; assay type: cell-based; details: for Fold @ 1 nM: fold change of luciferase expression at 1 nM test compound relative to vehicle (0.1% DMSO); for Fold @ 100 nM: fold change of luciferase expression at 100 nM test compound relative to vehicle (0.1% DMSO); for Fold @ 10 uM: fold change of luciferase expression at 10 uM test compound relative to vehicle (0.1% DMSO); for Fold relative to benchmark @ 100 nM: luciferase expression at 100 nM test compound relative to 100 nM benchmark compound 11-cl-BBQ
How it was run: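 Values are fold luciferase induction relative to vehicle (0.1% DMSO), read by luminometry of lysates from Hepa1 cells carrying an AhRE-driven luciferase reporter. Cells were seeded at 1×10^4 per well, grown overnight and treated with compound before lysis.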

CYP-2D6 = CYP-2D6 (Homo sapiens (Human), UniProt P10635); test: CYP panel profile: P450 inhibition, CYP-2D6; assay type: in vitro ADME; details: human liver microsomes
Protocol: as §1, §2

CYP-2B6 = CYP-2B6 (Homo sapiens (Human), UniProt P20813); test: CYP panel profile: P450 inhibition, CYP-2B6; assay type: in vitro ADME; details: human liver microsomes
Protocol: as §1, §2

CYP-2C19 = CYP-2C19 (Homo sapiens (Human), UniProt P33261); test: CYP panel profile: P450 inhibition, CYP-2C19; assay type: in vitro ADME; details: human liver microsomes
Protocol: as §1, §2

CYP-3A4 = CYP-3A4 (Homo sapiens (Human), UniProt P08684); test: CYP panel profile: P450 inhibition, CYP-3A4; assay type: in vitro ADME; details: human liver microsomes
Protocol: as §1, §2

CYP-2C9 = CYP-2C9 (Homo sapiens (Human), UniProt P11712); test: CYP panel profile: P450 inhibition, CYP-2C9; assay type: in vitro ADME; details: human liver microsomes
Protocol: as §1, §2

CYP-2C8 = CYP-2C8 (Homo sapiens (Human), UniProt P10632); test: CYP panel profile: P450 inhibition, CYP-2C8; assay type: in vitro ADME; details: human liver microsomes
Protocol: as §1, §2

[2] = In vivo PK study, intravenous and oral administration in male mice; parameters: species or system mouse; details: plasma; for C0: read-out: C0_Cmax
Protocol: In Vivo PK Study Pharmacokinetics of Exemplary Compounds 362 and 893 Following an Intravenous and Oral Administration in Male C57BL/6J Mice.
Male C57BL/6J mice, approximately 8-10 weeks old, were obtained from the vivarium of Fundación Ciencia & Vida Chile (Santiago, Chile). Dosing solution of Compound 362 for PO administration was formulated in a vehicle containing 40% DMSO, 20% Kolliphor EL, 40% Propylene Glycol at 0.8 mg/mL. Dosing solution of Compound 362 for IV administration was formulated in a vehicle containing 30% DMSO, 20% Kolliphor EL, 50% PBS at […].
Male […] mice, approximately 8-11 weeks old, 22-27 grams were obtained from the vivarium Fundación Ciencia & Vida Chile (Santiago, Chile). Animals were acclimated for a minimum period of 4 days upon arrival at the testing facility. Animals were weighed, identified by marking the tail with numbers using a non-toxic permanent marker and designated into the following treatment groups on the day of dosing:
Group 1 animals received an IV administration via caudal vein of 2 mg/kg PRXS0362 dosing solution.
Group 2 animals received a PO administration via feeding tubes (20 gauge) of 8 mg/kg PRXS0362 dosing solution.
Terminal whole blood was collected via cardiac puncture for group 1 at the following time points: 5, 10, 15, 30, 60, 120, 240, 360, and 480 minutes. Non-dosed mice were used to collect samples of zero time points. For the group 2 at the following time point: 15, 30, 60, 120, 240, 360, and 480 minutes.
Whole blood, approximately 300 μL per time point, was collected into microtainer tubes with EDTA (K2). Blood samples were centrifuged immediately at approximately 9,000 G at 4° C. for 5 minutes and plasma separated. Plasma samples were placed into individually labeled tubes and stored in a −80° C. freezer prior to LC/MS/MS analysis.
The whole brain was collected at each point only for both groups, for this the animals were euthanized with CO2, decapitated, the brain was extracted weighed, frozen in liquid nitrogen and stored at −80° C. prior to LC/MS/MS analysis.
Compound 893 was tested by the same protocol as above.

[3] = Liver microsomal stability, rat
Protocol: (§3) The assessment of metabolic stability of testing compounds was performed using human, mouse, rat, dog and monkey liver microsomes (20 mg protein/ml). Each reaction mixture contained 42.5 μL of 0.1 M potassium phosphate buffer pH 7.4, containing respective LM protein (final concentration 0.5 mg/ml). 2.5 μL of the compound stock solution was added in it (1 μM final concentration). The reaction was initiated by the addition of 5 μL NADPH solution (final Concentration 1 mM). At different time points (0, 5, 15, and 30 minutes), samples were quenched with 200 μL of cold acetonitrile containing ISTD Propranolol. Samples were centrifuged at 3500 rpm for 20 mM at 4° C. Supernatant was subjected to LC-MS/MS analysis for quantification. Verapamil was used as a positive control.

[4] = Liver microsomal stability, mouse
Protocol: as §3

[5] = mouse, liver microsomes, pH 7.4

Sequence of CYP-2C19 (P33261 whole entry): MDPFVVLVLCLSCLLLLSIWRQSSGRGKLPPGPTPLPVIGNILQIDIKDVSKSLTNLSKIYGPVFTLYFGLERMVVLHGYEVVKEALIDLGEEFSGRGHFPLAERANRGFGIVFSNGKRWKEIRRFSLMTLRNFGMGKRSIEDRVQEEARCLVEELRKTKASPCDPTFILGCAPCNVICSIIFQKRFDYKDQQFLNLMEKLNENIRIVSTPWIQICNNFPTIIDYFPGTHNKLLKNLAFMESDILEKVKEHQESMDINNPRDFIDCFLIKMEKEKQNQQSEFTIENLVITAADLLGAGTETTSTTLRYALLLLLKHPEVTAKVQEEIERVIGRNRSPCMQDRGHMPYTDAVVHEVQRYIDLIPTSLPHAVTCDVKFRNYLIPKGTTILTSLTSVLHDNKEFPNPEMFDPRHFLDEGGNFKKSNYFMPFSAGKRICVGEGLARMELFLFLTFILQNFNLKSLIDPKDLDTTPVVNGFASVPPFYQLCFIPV
Sequence of CYP-1A2 (P05177 whole entry): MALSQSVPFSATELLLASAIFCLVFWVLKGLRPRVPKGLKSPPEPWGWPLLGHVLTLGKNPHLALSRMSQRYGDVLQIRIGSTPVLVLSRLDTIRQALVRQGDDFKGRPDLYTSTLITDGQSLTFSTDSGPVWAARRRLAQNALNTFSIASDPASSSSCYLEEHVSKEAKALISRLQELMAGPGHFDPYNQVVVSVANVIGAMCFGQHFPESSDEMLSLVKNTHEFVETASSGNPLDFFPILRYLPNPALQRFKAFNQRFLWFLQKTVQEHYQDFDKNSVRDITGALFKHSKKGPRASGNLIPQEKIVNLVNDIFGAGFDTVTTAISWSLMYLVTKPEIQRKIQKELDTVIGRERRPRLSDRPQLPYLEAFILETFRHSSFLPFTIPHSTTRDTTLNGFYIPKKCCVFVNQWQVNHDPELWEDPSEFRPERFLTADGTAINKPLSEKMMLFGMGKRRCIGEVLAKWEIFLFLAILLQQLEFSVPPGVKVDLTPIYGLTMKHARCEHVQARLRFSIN
Sequence of CYP-2C9 (P11712 whole entry): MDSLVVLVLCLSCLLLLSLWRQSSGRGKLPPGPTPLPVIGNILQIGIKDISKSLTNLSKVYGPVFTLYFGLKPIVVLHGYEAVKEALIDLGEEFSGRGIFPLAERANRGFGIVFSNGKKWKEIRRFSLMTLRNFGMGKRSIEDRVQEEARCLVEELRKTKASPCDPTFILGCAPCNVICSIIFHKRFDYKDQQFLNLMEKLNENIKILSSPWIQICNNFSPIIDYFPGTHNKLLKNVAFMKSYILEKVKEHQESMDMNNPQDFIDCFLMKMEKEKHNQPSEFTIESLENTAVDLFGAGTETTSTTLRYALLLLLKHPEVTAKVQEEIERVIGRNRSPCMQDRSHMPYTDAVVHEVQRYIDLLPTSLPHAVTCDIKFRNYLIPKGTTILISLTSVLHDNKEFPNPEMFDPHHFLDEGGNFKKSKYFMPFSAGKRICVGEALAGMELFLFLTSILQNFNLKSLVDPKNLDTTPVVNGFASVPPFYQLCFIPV
Sequence of CYP-2C8 (P10632 whole entry): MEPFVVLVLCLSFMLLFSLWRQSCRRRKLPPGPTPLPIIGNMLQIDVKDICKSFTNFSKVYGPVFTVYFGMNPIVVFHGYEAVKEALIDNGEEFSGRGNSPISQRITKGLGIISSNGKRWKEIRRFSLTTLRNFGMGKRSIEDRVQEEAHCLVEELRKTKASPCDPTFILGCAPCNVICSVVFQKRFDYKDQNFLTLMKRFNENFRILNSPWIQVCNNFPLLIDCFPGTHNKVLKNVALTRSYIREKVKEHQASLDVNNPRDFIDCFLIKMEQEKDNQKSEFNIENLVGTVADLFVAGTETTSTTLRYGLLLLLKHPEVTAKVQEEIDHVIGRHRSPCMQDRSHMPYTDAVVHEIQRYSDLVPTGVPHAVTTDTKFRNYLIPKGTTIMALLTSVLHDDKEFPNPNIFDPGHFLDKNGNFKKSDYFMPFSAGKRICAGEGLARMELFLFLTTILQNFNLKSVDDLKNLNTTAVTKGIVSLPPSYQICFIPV
Sequence of aryl hydrocarbon receptor (AhR) (P30561 10-805): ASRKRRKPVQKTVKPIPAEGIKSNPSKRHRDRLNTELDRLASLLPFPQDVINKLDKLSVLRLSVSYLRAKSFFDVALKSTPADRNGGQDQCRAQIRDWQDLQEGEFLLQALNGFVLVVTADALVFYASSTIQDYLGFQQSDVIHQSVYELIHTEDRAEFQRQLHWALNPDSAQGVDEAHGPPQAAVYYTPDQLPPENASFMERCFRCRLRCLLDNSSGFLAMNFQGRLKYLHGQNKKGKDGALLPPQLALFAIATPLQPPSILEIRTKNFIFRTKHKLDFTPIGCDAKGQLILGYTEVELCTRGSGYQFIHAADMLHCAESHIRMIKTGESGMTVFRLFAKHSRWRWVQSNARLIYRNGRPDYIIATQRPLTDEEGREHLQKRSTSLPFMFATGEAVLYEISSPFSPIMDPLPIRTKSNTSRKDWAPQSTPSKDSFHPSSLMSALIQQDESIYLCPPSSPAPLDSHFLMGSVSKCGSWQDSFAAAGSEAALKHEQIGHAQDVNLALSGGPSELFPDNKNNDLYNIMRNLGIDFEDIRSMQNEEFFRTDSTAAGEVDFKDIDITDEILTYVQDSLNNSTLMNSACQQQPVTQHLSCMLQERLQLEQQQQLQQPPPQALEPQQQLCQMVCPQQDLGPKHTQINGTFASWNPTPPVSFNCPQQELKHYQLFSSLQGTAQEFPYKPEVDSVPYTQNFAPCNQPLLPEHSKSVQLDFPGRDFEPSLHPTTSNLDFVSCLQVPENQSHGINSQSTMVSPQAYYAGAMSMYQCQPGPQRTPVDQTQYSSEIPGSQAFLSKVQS
Sequence of aryl hydrocarbon receptor (AhR) (P53762 whole entry partner): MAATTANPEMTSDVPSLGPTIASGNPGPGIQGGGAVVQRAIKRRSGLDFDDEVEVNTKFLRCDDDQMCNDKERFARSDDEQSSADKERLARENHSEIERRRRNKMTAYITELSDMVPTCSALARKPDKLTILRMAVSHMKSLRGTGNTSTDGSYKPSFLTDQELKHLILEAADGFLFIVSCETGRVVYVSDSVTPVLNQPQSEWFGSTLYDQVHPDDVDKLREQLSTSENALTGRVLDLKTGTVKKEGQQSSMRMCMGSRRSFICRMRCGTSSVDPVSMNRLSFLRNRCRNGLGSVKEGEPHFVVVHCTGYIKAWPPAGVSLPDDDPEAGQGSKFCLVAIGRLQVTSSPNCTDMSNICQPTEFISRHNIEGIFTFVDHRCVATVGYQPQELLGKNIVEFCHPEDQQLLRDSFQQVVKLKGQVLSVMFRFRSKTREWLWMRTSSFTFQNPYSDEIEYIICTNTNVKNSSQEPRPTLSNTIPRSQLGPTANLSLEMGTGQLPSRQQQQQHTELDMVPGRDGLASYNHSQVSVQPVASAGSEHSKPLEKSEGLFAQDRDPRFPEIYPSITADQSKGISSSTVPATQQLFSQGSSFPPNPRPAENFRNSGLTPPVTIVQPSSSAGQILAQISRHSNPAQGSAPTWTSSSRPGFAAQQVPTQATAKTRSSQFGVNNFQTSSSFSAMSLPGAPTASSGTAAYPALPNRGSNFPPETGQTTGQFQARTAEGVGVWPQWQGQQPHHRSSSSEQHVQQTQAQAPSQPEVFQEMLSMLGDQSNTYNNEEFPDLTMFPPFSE
Sequence of CYP-3A4 (P08684 whole entry): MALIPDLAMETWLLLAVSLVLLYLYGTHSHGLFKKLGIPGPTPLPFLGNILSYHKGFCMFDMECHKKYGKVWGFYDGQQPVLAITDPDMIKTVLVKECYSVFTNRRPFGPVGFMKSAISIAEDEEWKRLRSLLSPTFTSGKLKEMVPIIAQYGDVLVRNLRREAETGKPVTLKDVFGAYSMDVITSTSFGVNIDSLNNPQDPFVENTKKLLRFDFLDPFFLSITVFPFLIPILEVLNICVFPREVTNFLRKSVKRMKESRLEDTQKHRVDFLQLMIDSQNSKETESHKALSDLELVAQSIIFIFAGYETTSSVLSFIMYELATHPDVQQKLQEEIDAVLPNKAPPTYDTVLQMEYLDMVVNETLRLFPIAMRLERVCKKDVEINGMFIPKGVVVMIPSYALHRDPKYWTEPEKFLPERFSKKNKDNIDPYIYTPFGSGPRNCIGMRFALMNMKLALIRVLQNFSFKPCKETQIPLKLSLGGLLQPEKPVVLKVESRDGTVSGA
Sequence of CYP-2D6 (P10635 whole entry): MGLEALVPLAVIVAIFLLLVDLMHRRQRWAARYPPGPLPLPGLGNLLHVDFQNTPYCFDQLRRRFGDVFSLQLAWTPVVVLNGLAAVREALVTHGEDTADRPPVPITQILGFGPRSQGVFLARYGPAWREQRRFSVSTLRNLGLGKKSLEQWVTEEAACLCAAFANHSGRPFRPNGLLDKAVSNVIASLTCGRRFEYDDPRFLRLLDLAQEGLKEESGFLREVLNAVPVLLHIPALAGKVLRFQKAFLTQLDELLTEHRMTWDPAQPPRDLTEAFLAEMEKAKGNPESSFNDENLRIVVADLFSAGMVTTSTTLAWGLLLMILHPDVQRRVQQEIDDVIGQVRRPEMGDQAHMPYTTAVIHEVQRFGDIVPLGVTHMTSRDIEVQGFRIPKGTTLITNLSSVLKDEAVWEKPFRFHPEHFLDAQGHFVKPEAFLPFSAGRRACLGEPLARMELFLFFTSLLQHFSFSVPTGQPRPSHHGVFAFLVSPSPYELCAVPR

With `O=C(c1ccccc1)n1c(-c2cccc3ccccc23)nc2cc(Cl)ccc21` [Compound 494] the IC50 (CYP-1A2) was 0.7 µM, the “Fold @ 1 nM” value [1] was 1 fold and the “Fold @ 100 nM” value [1] was 29 fold. For the same molecule, the “Fold @ 10 uM” value [1] was 43 fold, the “Fold relative to benchmark @ 100 nM” value [1] was 0.94 fold and the IC50 (CYP-2D6) was > 50 µM. For the same molecule, the IC50 (CYP-2B6) was > 45 µM, the IC50 (CYP-2C19) was 5.2 µM and the IC50 (CYP-3A4) was 1.2 µM. It also gave an IC50 (CYP-2C9) of 4.2 µM and an IC50 (CYP-2C8) of 2.5 µM.
In the case of `O=C(c1ccc(F)cc1)n1c(-c2cccc3ccccc23)nc2cc(Cl)ccc21` [Compound 586], the IC50 (CYP-1A2) is reported as 1.7 µM, the “Fold @ 1 nM” value [1] is reported as 7 fold and the “Fold @ 100 nM” value [1] is reported as 20 fold. For the same molecule, the “Fold @ 10 uM” value [1] was 18 fold, the “Fold relative to benchmark @ 100 nM” value [1] was 1.33 fold and the IC50 (CYP-2D6) was > 50 µM. It also gave an IC50 (CYP-2B6) of 22 µM, an IC50 (CYP-2C19) of 7.1 µM and an IC50 (CYP-3A4) of 1.3 µM. For the same molecule, the IC50 (CYP-2C9) was 7.9 µM and the IC50 (CYP-2C8) was 9.1 µM.
For `O=C(c1c(F)cc(Br)cc1F)n1c(-c2cccc3ccccc23)nc2cc(Cl)ccc21` [Compound 638], the IC50 (CYP-1A2) was 0.3 µM, the “Fold @ 1 nM” value [1] was 1 fold and the “Fold @ 100 nM” value [1] was 12 fold. For the same molecule, the “Fold @ 10 uM” value [1] was 20 fold, the “Fold relative to benchmark @ 100 nM” value [1] was 1.17 fold and the IC50 (CYP-2D6) was 14.5 µM. The IC50 (CYP-2B6) was 11.6 µM, the IC50 (CYP-2C19) was 3.4 µM and the IC50 (CYP-3A4) was 8.1 µM. It also gave an IC50 (CYP-2C9) of 5.2 µM and an IC50 (CYP-2C8) of 1.8 µM.
With `O=C(c1ccc(F)cc1)n1c(-c2cccc3ccccc23)nc2ccc(Cl)cc21` [Compound 587] the IC50 (CYP-1A2) was 0.4 µM, the “Fold @ 1 nM” value [1] was 2 fold and the “Fold @ 100 nM” value [1] was 16 fold. For the same molecule, the “Fold @ 10 uM” value [1] was 19 fold, the “Fold relative to benchmark @ 100 nM” value [1] was 1.07 fold and the IC50 (CYP-2D6) was 26 µM. It also gave an IC50 (CYP-2B6) of 11.6 µM, an IC50 (CYP-2C19) of 6.7 µM and an IC50 (CYP-3A4) of 6.3 µM. It also gave an IC50 (CYP-2C9) of 5.3 µM and an IC50 (CYP-2C8) of 3.2 µM.
With `COC(=O)c1ccc2c(c1)nc(-c1cccc3ccccc13)n2C(=O)c1ccc(F)c(F)c1` [Compound 848] the IC50 (CYP-1A2) was 2.6 µM, the “Fold @ 1 nM” value [1] was 1 fold and the “Fold @ 100 nM” value [1] was 1 fold. For the same molecule, the “Fold @ 10 uM” value [1] was 5 fold, the “Fold relative to benchmark @ 100 nM” value [1] was 0.04 fold and the IC50 (CYP-2D6) was 2.9 µM. For the same molecule, the IC50 (CYP-2B6) was 16.7 µM, the IC50 (CYP-2C19) was 1.1 µM and the IC50 (CYP-3A4) was 13.7 µM. The IC50 (CYP-2C9) was 6.3 µM and the IC50 (CYP-2C8) was 3.5 µM.
In the case of `O=C(c1ccc(F)c(F)c1)n1c(-c2ccc(-c3ccccc3)cc2)nc2cc(Cl)ccc21` [Compound 643], the IC50 (CYP-1A2) is reported as 20.7 µM, the “Fold @ 1 nM” value [1] is reported as 1 fold and the “Fold @ 100 nM” value [1] is reported as 1 fold. For the same molecule, the “Fold @ 10 uM” value [1] was 2 fold, the “Fold relative to benchmark @ 100 nM” value [1] was 0.11 fold and the IC50 (CYP-2D6) was > 50 µM. For the same molecule, the IC50 (CYP-2B6) was > 50 µM, the IC50 (CYP-2C19) was > 50 µM and the IC50 (CYP-3A4) was > 50 µM. The IC50 (CYP-2C9) was 9.2 µM and the IC50 (CYP-2C8) was 12.3 µM.
For `O=c1c2cccc3cccc(c32)c2nc3cc(Cl)ccc3n12` [Compound 362, 6-chloro-3,10-diazapentacyclo[10.7.1.0^2,10.0^4,9.0^16,20]icosa-1(19),2,4(9),5,7,12,14,16(20),17-nonaen-11-one], the “Fold @ 1 nM” value [1] was 16 fold, the “Fold @ 100 nM” value [1] was 22 fold and the “Fold relative to benchmark @ 100 nM” value [1] was 1 fold. It also gave a CL_CL/F ([2]; IV 2 mg/Kg) of 4.418 L/[Kg*h], a Vd_Vd/F ([2]; IV 2 mg/Kg) of 5.67 L/kg and a thalf ([2]; IV 2 mg/Kg) of 0.889 h. For the same molecule, the CL_CL/F ([2]; PO 8 mg/Kg) was 7.86 L/[Kg*h], the Vd_Vd/F ([2]; PO 8 mg/Kg) was 8.314 L/kg and the thalf ([2]; PO 8 mg/Kg) was 0.733 h. It also gave an AUC(0-inf) ([2]; mouse, IV 2 mg/Kg) of 453 ng·h/mL, an AUC(0-t) ([2]; mouse, IV 2 mg/Kg) of 451 ng·h/mL and an MRT ([2]; mouse, IV 2 mg/Kg) of 52.3 min. It also gave a C0 ([2]; mouse, IV 2 mg/Kg) of 215 ng/mL, a bioavailability ([2]; mouse, PO 8 mg/Kg vs IV 2 mg/Kg) of 56.2% and an AUC(0-inf) ([2]; mouse, PO 8 mg/Kg) of 1020 ng·h/mL. For the same molecule, the AUC(0-t) ([2]; mouse, PO 8 mg/Kg) was 1020 ng·h/mL, the MRT ([2]; mouse, PO 8 mg/Kg) was 98 min and the Tmax ([2]; mouse, PO 8 mg/Kg) was 60 min. The C0 ([2]; mouse, PO 8 mg/Kg) was 427 ng/mL, the “Rem @ RLM × 30 min” value ([3]; rat liver microsomes, 30 min, 1 μM compound, 0.5 mg/ml protein) was 14.5% and the half-life at 1 μM ([3]; rat, liver microsomes, pH 7.4) was 11.4 min. The microsomal CLint at 1 μM ([3]; rat, liver microsomes, pH 7.4) was 121 µL/min/mg, the “Rem @ MLM × 30 min” value ([4]; mouse liver microsomes, 30 min, 1 μM compound, 0.5 mg/ml protein) was 12.0% and the half-life at 1 μM [4, 5] was 9.8 min. It also gave a microsomal CLint at 1 μM [4, 5] of 141 µL/min/mg.
In the case of `O=C(c1cccc2ccccc12)n1c(-c2cccc3ccccc23)nc2cc(Cl)ccc21` [Compound 704], the IC50 (CYP-1A2) is reported as 1.2 µM, the IC50 (CYP-2D6) is reported as > 50 µM and the IC50 (CYP-2B6) is reported as 8.2 µM. It also gave an IC50 (CYP-2C19) of 4.6 µM, an IC50 (CYP-3A4) of 3.9 µM and an IC50 (CYP-2C9) of 8.9 µM. The IC50 (CYP-2C8) was 5.6 µM.
